Experimental data taken from patent US20220054494A1, “METHODS FOR TREATING BLADDER AND URETHRA DYSFUNCTION AND DISEASE” (University of Pittsburgh - Of the Commonwealth System of …, priority 2019, published 2022).
Entries after “also recorded” stand apart in the source; their conditions may differ.

Tests used:
[1] = tested on: urethral smooth muscle and external urethral sphincter (striated muscle); test: Transmission electron microscopy of urethral smooth muscle and external urethral sphincter; format: in vivo, rat; details: aged rats; oral 8-AG 5 mg/kg/day, 6 weeks
Text: Damage to the muscles or lack of hormonal stimulation are major contributing factors to urinary incontinence, which can lead to impaired bladder, emptying, urgency, and incontinence. The methods and materials used (such as for western immunoblotting and transmission electron microscopy) are the same as Example 1 with the tissues utilized for examination of muscle and mitochondrial morphology being the proximal urethral sphincter muscle and striated muscle of the external sphincter.
Transmission electron microscopy (TEM): The other half of each urinary bladder, proximal urethra, or external urethral sphincter from each group (young, aged, aged+8-AG treatment) was fixed in cold 2.5% glutaraldehyde in 0.01 M PBS. The specimens were rinsed in PBS, post-fixed in 1% osmium tetroxide with 1% potassium ferricyanide, rinsed in PBS, dehydrated through a graded series of ethanol and propylene oxide solutions, and embedded in POLY/BED® 812 (Luft formulations). Semi-thin (300 nm) sections were cut on a LEICA® Reichart Ultracut, stained with 0.5% Toluidine Blue in 1% sodium borate and examined under the light microscope. Ultrathin sections (65 nm) were stained with uranyl acetate as well as Reynold's lead citrate and examined on a JEOL 1400 transmission electron microscope with a side mount AMT 2k digital camera (Advanced Microscopy Techniques, Danvers, Mass.).

parkin = test: Western immunoblotting, parkin; format: in vivo, rat; details: aged rats; oral 8-AG 5 mg/kg/day, 6 weeks
Method: Western immunoblotting: One half of each bladder preparation was homogenized using Lysing Matrix D in a FastPrep 24 instrument (MP Biomedicals, Solon, Ohio) in HBSS (5 mM KCl, 0.3 mM KH2PO4, 138 mM NaCl, 4 mM NaHO3, 0.3 mM Na2HCO3, 0.3 mM Na2HPO4, 5.6 mM glucose and 10 mM Hepes, pH 7.4) containing complete protease inhibitor cocktail (1 tablet/10 ml, ROCHE®, Indianapolis, Ind.)) and phosphatase inhibitor cocktail (SIGMA®, 1:100). After centrifugation (13000 rpm; 15 min at 4° C.), the membrane protein fraction was prepared by suspending the membrane pellets in lysis buffer containing 0.3 M NaCl, 50 mM Tris-HCl (pH 7.6) and 0.5% Triton X-100 and the same concentration of protease inhibitors as above. The suspensions were incubated on ice and centrifuged (13000 rpm; 15 min at 4° C.). The protein concentrations of the combined supernatants were determined using the PIERCE® BCA protein assay (THERMO SCIENTIFIC®, Rockford, Ill.). […] As a loading control, total protein per sample was determined using Bio-Rad® Stain Free SDS-PAGE gel technology. UV-activated protein fluorescence was imaged on a CHEMIDOC® MP (BIO-RAD®). […] The volume (intensity) of each protein species was determined and normalized to total protein using Image Lab software (BIO-RAD®).

## Nc1nc2[nH]c(N)nc2c(=O)[nH]1 [8-AG, 8-Aminoguanine]
[1]
  external urethral sphincter (striated muscle) and mitochondrial morphology: restored to a younger state; also recorded: reversed to a younger state
  urethral smooth muscle and mitochondrial morphology: restored to a younger state; also recorded: reversed to a younger state
parkin
  parkin in bladder mucosa: reversed or restored to levels similar to the younger state; also recorded: restored changes similar to a younger state
